Reference: US7423030B2, “1-amino-phthalazine derivatives, the preparation and the therapeutic use thereof” (Sanofi-Aventis, priority 2004, dated 2008)
Structures can show the parent of a compound that is named as a salt.

Row | SMILES | melting point [°C]
1 | COCc1ccc(-c2nnc(NC3CCN(Cc4ccc5ccccc5c4)CC3)c3cc(OC)ccc23)cc1 (as salt: salt) (hydrate or solvate) [Compound 88, 7-Methoxy-4-(4-methoxymethylphenyl)-N-[1-(naphthalen-2-ylmethyl)piperidin-4-yl]phthalazin-1-amine] | 155
2 | COc1ccc(-c2nnc(NC3CCN(Cc4ccc(OC)c(C)c4)CC3)c3cc(OC)ccc23)cc1 (as salt: salt) (hydrate or solvate) [Compound 89, 7-methoxy-N-[1-(4-methoxy-3-methylbenzyl)piperidin-4-yl]-4-(4-methoxyphenyl)phthalazin-1-amine] | 270
3 | COc1ccc(OC)c(-c2nnc(NC3CCN(Cc4ccc5ncsc5c4)CC3)c3cc(OC)ccc23)c1 (as salt: salt) (hydrate or solvate) [Compound 135, N-[1-(1,3-benzothiazol-6-ylmethyl)piperidin-4-yl]-4-(2,5-dimethoxyphenyl)-7-methoxyphthalazin-1-amine] | 193
4 | COc1ccc(-c2nnc(NC3CCN(Cc4ccc5ccccc5c4)CC3)c3ccc(C)cc23)cc1 (as salt: salt) (hydrate or solvate) [Compound 142, 4-(4-methoxyphenyl)-6-methyl-N-[1-(naphthalen-2-ylmethyl)piperidin-4-yl]phthalazin-1-amine] | 134
5 | COc1ccc2c(-c3ccc(Br)cc3)nnc(NC3CCN(Cc4ccc5ccccc5c4)CC3)c2c1.Cl.Cl (hydrate or solvate) | 246
6 | COc1ccc(-c2nnc(NC3CCN(Cc4ccc(CN(C)C)cc4)CC3)c3cc(OC)ccc23)cc1.Cl.Cl.Cl (hydrate or solvate) | 218
7 | COc1ccc(OC)c(-c2nnc(NC3CCN(Cc4ccc5ccccc5c4)CC3)c3cc(OC)ccc23)c1.Cl.Cl (hydrate or solvate) | 240

Second part, the compound after the results:

Row | melting point [°C] | SMILES
8 | 281 | COc1ccc(-c2nnc(NC3CCN(Cc4ccc5[nH]ccc5c4)CC3)c3cc(OC)ccc23)cc1 (as salt: salt) (hydrate or solvate) [Compound 87, N-[1-(1H-indol-5-ylmethyl)piperidin-4-yl]-7-methoxy-4-(4-methoxyphenyl)phthalazin-1-amine]
9 | 249 | COc1ccc(-c2nnc(NC3CCN(Cc4ccc5ncccc5c4)CC3)c3cc(OC)ccc23)cc1 (as salt: salt) (hydrate or solvate) [Compound 99, 7-methoxy-4-(4-methoxyphenyl)-N-[1-(quinolin-6-ylmethyl)piperidin-4-yl]phthalazin-1-amine]
10 | 161 | COc1ccc(-c2nnc(NC3CCN(Cc4ccc5c(ccn5C)c4)CC3)c3cc(OC)ccc23)cc1 (as salt: salt) (hydrate or solvate) [Compound 100, 7-methoxy-4-(4-methoxyphenyl)-N-{1-[(1-methyl-1H-indol-5-yl)methyl]piperidin-4-yl}phthalazin-1-amine]
11 | 278 | COc1ccc(-c2nnc(NC3CCN(Cc4ccc5cc[nH]c5c4)CC3)c3cc(OC)ccc23)cc1 (as salt: salt) (hydrate or solvate) [Compound 129, N-[1-(1H-indol-6-ylmethyl)piperidin-4-yl]-7-methoxy-4-(4-methoxyphenyl)phthalazin-1-amine]
12 | 250 | COc1ccc(OC)c(-c2nnc(NC3CCN(Cc4ccc5occc5c4)CC3)c3cc(OC)ccc23)c1.Cl.Cl (hydrate or solvate)
13 | 272 | COc1ccc(OC)c(-c2nnc(NC3CCN(Cc4ccc5c(c4)OCO5)CC3)c3cc(OC)ccc23)c1.Cl.Cl (hydrate or solvate)
14 | 245 | CCc1ccc(CN2CCC(Nc3nnc(-c4ccc(OC)cc4)c4ccc(OC)cc34)CC2)cc1.Cl.Cl (hydrate or solvate)
15 | 239 | COc1ccc2c(COc3ccccc3)nnc(NC3CCN(Cc4ccc5ccccc5c4)CC3)c2c1.Cl.Cl (hydrate or solvate)
16 | 208 | COc1ccc(-c2nnc(NC3CCN(Cc4ccc(C(C)O)cc4)CC3)c3cc(OC)ccc23)cc1.Cl.Cl (stereo not shown) (hydrate or solvate)
